Data from US9174998B2, “(6S,9aS)-N-benzyl-6-[(4-hydroxyphenyl)methyl]-4,7-dioxo-8-({6-[3-(piperazin-1-yl)azetidin-1-yl]pyridin-2-yl}methyl)-2-(prop-2-en-1-yl)-octahydro-1H-pyrazino[2,1-c][1,2,4]triazine-1-carboxamide compound” (Eisai R&D Management Co., Ltd., priority 2013, dated 2015).
Converted amounts (≈) assume the structure as drawn. Like-named read-outs stand apart in the source and are kept apart here.

How the values were obtained:
[1] = PAMPA test (parallel artificial membrane permeability assay); format: in vitro ADME; conditions: phosphate buffer pH 6.8, about 200 μM, about 5 hours, room temperature, read-out: Test Example 4 membrane permeation coefficient Pe
Method: A test solution (see below) was stirred while shaking at room temperature for about 5 hours using a 96-well PAMPA plate (BD Biosciences) in which a lipid had been precoated onto a polyvinylidene fluoride (PVDF) film to evaluate the membrane permeation coefficient Pe (cm/s) of each compound dissolved in the test solution (concentration: about 200 μM) upon the transport of the compound from a donor side to an acceptor side through a lipid membrane. The Pe value was calculated in accordance with equations 1 and 2, and the concentration of the compound on the donor side and the acceptor side was measured by a HPLC-UV method. In 0.3 mL of the test solution on the donor side is contained about 1% (v/v) of DMSO, since 3 μL of a DMSO solution containing the compound at a concentration of 20 mM was added to the test solution.
Test solution: a phosphate buffer solution having a pH value of 6.8 (90 mM of phosphate, 48 mM of NaCl, 5.4 mM of KCl)
Conditions for stirring: a multishaker MS-300 (AS ONE Corporation), 350 rpm
[formula] CD(t): compound concentration in donor well at time t CA(t): compound concentration in acceptor well at time t VD: donor well volume (0.3 mL) VA: acceptor well volume (0.2 mL) A: filter area (0.3 cm^2)

[2] = Evaluation of metabolic stability; format: in vitro ADME, human; conditions: 0.2 mg/mL HLM, 0.1 μM test substance, 15 minutes at 37° C., with vs without NADPH production
Method: A test substance was dissolved in DMSO so that the concentration of the resultant solution became 20 mM, and the solution was diluted with DMSO so that the concentration of the resultant solution became 1 mM. The metabolic stability of the test substance was evaluated using a human liver microsome (HLM) in which human liver was pooled. An assay buffer solution contained 0.2 mg/mL of HLM, a 0.1 M of phosphate potassium buffer solution (pH 7.4), 0.1 mM of EDTA, 0.33 mM of NADP+, 8 mM of glucose-6-phosphate, 0.1 U/mL of glucose-6-phosphate dehydrogenase, 6 mM of MgCl2, 0.1 μM of a test substance (final concentration in DMSO: 0.01%) in 0.15 mL of the final incubation volume. Fifteen minutes after the initiation of the reaction at 37° C., 0.15 mL of a acetonitrile/methanol mixed solution (7:3, by volume) was added to the solution to terminate the reaction. After centrifugation, the resultant supernatant was analyzed by LC-MSMS, peak areas were compared under the presence or absence of the production of NADPH, and the residual ratio of the test substance was calculated.

[3] = Evaluation of solubility (DMSO stock into PBS, HPLC-UV); format: physicochemical; conditions: Dulbecco's phosphate-buffered saline pH 7, room temperature, about 15 minutes shaking, values greater than 200 μM regarded as 200 μM, read-out: Test Example 3 solubility
Method: To 0.25 mL of a test solution a mentioned below was added 2.5 μL of a DMSO solution having a compound concentration of 20 mM. The resultant solution was shaken at room temperature for about 15 minutes (the conditions for the shaking are mentioned below). Subsequently, a supernatant was collected by a suction filtration under a reduced pressure. A DMSO solution having a compound concentration of 200 μM was used as a standard solution, and the concentration of a compound in a filtrate which was quantified by a HPLC-UV method was employed as a solubility (rounded off to the whole number). In this evaluation, since a value 200 μM became the upper limit operationally, all of quantification values greater than 200 μM were regarded as 200 μM.
Test solution: GIBCO (registered trade name) Dulbecco's phosphate-buffered saline (pH 7, Life Technologies Corporation)
Conditions for shaking: a microplate shaker N-704 (Nissinrika Corporation), speed 6

[4] = tested on: Wnt signal; assay: Detection of Wnt signal (TOPglow luciferase reporter, LiCl-stimulated); format: cell-based; conditions: Homo sapiens; HEK293 clone carrying pNeo-TOP reporter; LiCl stimulation; luciferase luminescence; read-out: Test Example 1 IC50 (concentration required for inhibiting the Wnt signal activity by 50%)
Method: pcDNA3.1(+) (invitrogen) was cleaved with restriction enzymes BglII and NotI, and an adapter BEHKS having a sequence shown below (containing restriction enzyme sites BglII, EcoRI, HindIII, KpnI, SacI and NotI) was inserted thereinto, thereby producing a plasmid pNeo-HKS.
Subsequently, a fragment having a length of about 2700 bp (containing a Wnt-responsive sequence and a luciferase gene), which was prepared by cleaving from a TOPglow plasmid contained in a TOPglow/FOPglow TCF Reporter Kit (upstate Catalog#17-366) with restriction enzymes HindIII and KpnI, was inserted between HindIII and KpnI in pNeo-HKS, thereby producing a plasmid pNeo-TOP. The plasmid pNeo-TOP was introduced into human fetus-derived renal cell strain HEK293, then a compound was selected using G418, and then a cell clone strain was established by a limiting dilution method. The cell clone strain was subjected to a Wnt signal detection test.
The cell clone strain was subcultured in a D-MEM glucose-rich culture medium (Wako Pure Chemical Industries, Ltd.) containing 10% FBS, and cells in a growth phase were used in the test. Cells were collected using trypsin-EDTA, the number of the cells was counted, and then the cells were suspended in a D-MEM glucose-rich culture medium containing 10% FBS so that the number of cells became 2×10^5 cells/mL. The cell suspension was added to a 96-well cell culture plate (Greiner Bio-One Co., Ltd., product number: 655083) in an amount of 0.1 mL/well and then cultured overnight in a 5% CO2 incubator (37° C.). After the culturing, a substance to be tested, which was dissolved in DMSO, was diluted with a D-MEM glucose-rich culture medium containing 10% of FBS and 80 mM of LiCl to produce a sample solution. The sample solution (0.1 mL) was added to each well and then cultured in a 5% CO2 incubator (37° C.) […]. Six hours after the addition of the sample solution, a supernatant was removed from each well, and then 50 μL of Bright-Glo™ Luciferase substrate (Promega, product number: E2620) was added thereto. The plate was put on a plate mixer for several seconds, and then the emission of light from each well was measured using a EnVision™ Multilabel plate reader (PerkinElmer Co., Ltd.). The Wnt signal activation rate (%) of each well was determined, and a concentration (IC50) which is required for inhibiting the Wnt signal activity of a substance of interest by 50% was calculated, wherein the luminosity of a well to which a sample solution was not added and LiCl was added was defined as a 100% Wnt signal activity and the luminosity of a well to which either of a sample solution or LiCl was not added was defined as a 0% Wnt signal activity.

[5] = aqueous buffer, kinetic from dmso stock

Papp [1] [×10⁻⁶ cm/s]	Test Example 2 residual ratio of the test substance [2] [%]	solubility [3, 5] [µM]	IC50 [4] [nM]	solubility [3] [µM]	SMILES
1.34	52.9	97 (≈ 67.2 µg/mL)	23200	–	C=CCN1CC(=O)N2[C@@H](Cc3ccc(O)cc3)C(=O)N(Cc3cccnc3N3CCC(N4CCCC4)CC3)C[C@@H]2N1C(=O)NCc1ccccc1 [Comparative Example 1, (6S,9aS)-N-Benzyl-6-(4-hydroxybenzyl)-4,7-dioxo-8-((2-(4-(pyrrolidin-1-yl)piperidin-1-yl)pyridin-3-yl)methyl)-2-(prop-2-en-1-yl)-octahydro-1H-pyrazino[2,1-c][1,2,4]triazine-1-carboxamide, reference compound]
0.85	0.6	122 (≈ 70.6 µg/mL)	330	–	C[C@H]1C2N(C(=O)CN(C)N2C(=O)NCc2ccccc2)[C@@H](Cc2ccc(O)cc2)C(=O)N1Cc1cccc2cccnc12 (stereo partly drawn) [Comparative Example 2, (6S,9S)-N-Benzyl-6-(4-hydroxybenzyl)-2,9-dimethyl-4,7-dioxo-8-(quinolin-8-ylmethyl)octahydro-1H-pyrazino[2,1-c][1,2,4]triazine-1-carboxamide, reference compound]
1.32	58	–	290	200 (≈ 142 µg/mL)	C=CCN1CC(=O)N2[C@@H](Cc3ccc(O)cc3)C(=O)N(Cc3cccc(N4CC(N5CCN(CC)CC5)C4)n3)C[C@@H]2N1C(=O)NCc1ccccc1 [Example 2, (6S,9aS)-N-Benzyl-8-((6-(3-(4-ethylpiperazin-1-yl)azetidin-1-yl)pyridin-2-yl)methyl)-6-((4-hydroxyphenyl)methyl)-4,7-dioxo-2-(prop-2-en-1-yl)-octahydro-1H-pyrazino[2,1-c][1,2,4]triazine-1-carboxamide]
1.33	54	–	150	200 (≈ 142 µg/mL)	C=CCN1CC(=O)N2[C@@H](Cc3ccc(O)cc3F)C(=O)N(Cc3cccc(N4CC(N5CCN(C)CC5)C4)n3)C[C@@H]2N1C(=O)NCc1ccccc1 [Example 3, (6S,9aS)-N-Benzyl-6-((2-fluoro-4-hydroxyphenyl)methyl)-8-((6-(3-(4-methylpiperazin-1-yl)azetidin-1-yl)pyridin-2-yl)methyl)-4,7-dioxo-2-(prop-2-en-1-yl)-octahydro-1H-pyrazino[2,1-c][1,2,4]triazine-1-carboxamide]
2.03	44	199 (≈ 144 µg/mL)	60	–	C=CCN1CC(=O)N2[C@@H](Cc3ccc(O)cc3F)C(=O)N(Cc3cccc(N4CC(N5CCN(C)[C@@H](C)C5)C4)n3)C[C@@H]2N1C(=O)NCc1ccccc1 [Example 4, (6S,9aS)-N-Benzyl-8-((6-(3-((3S)-3,4-dimethylpiperazin-1-yl)azetidin-1-yl)pyridin-2-yl)methyl)-6-((2-fluoro-4-hydroxyphenyl)methyl)-4,7-dioxo-2-(prop-2-en-1-yl)-octahydro-1H-pyrazino[2,1-c][1,2,4]triazine-1-carboxamide]
1.18	39	–	82	200 (≈ 145 µg/mL)	C=CCN1CC(=O)N2[C@@H](Cc3ccc(O)cc3F)C(=O)N(Cc3cccc(N4CC(N5CCN(C)[C@H](C)C5)C4)n3)C[C@@H]2N1C(=O)NCc1ccccc1 [Example 5, (6S,9aS)-N-Benzyl-8-((6-(3-((3R)-3,4-dimethylpiperazin-1-yl)azetidin-1-yl)pyridin-2-yl)methyl)-6-((2-fluoro-4-hydroxyphenyl)methyl)-4,7-dioxo-2-(prop-2-en-1-yl)-octahydro-1H-pyrazino[2,1-c][1,2,4]triazine-1-carboxamide]
1.27	55	195 (≈ 138 µg/mL)	250	–	C=CCN1CC(=O)N2[C@@H](Cc3ccc(O)cc3)C(=O)N(Cc3cccc(N4CC(N5CCN(C)C[C@@H]5C)C4)n3)C[C@@H]2N1C(=O)NCc1ccccc1 [Example 6, (6S,9aS)-N-Benzyl-8-((6-(3-((2S)-2,4-dimethylpiperazin-1-yl)azetidin-1-yl)pyridin-2-yl)methyl)-6-((4-hydroxyphenyl)methyl)-4,7-dioxo-2-(prop-2-en-1-yl)-octahydro-1H-pyrazino[2,1-c][1,2,4]triazine-1-carboxamide]
2.77	29	189 (≈ 137 µg/mL)	95	–	C=CCN1CC(=O)N2[C@@H](Cc3ccc(O)cc3)C(=O)N(Cc3ccc(F)c(N4CC(N5CCN(CC)CC5)C4)n3)C[C@@H]2N1C(=O)NCc1ccccc1 [Example 7, (6S,9aS)-N-Benzyl-8-((6-(3-(4-ethylpiperazin-1-yl)azetidin-1-yl)-5-fluoropyridin-2-yl)methyl)-6-((4-hydroxyphenyl)methyl)-4,7-dioxo-2-(prop-2-en-1-yl)-octahydro-1H-pyrazino[2,1-c][1,2,4]triazine-1-carboxamide]
–	63	–	470	200 (≈ 139 µg/mL)	C=CCN1CC(=O)N2[C@@H](Cc3ccc(O)cc3)C(=O)N(Cc3cccc(N4CC(N5CCN(C)CC5)C4)n3)C[C@@H]2N1C(=O)NCc1ccccc1 [Example 29, (6S,9aS)-N-Benzyl-6-((4-hydroxyphenyl)methyl)-8-((6-(3-(4-methylpiperazin-1-yl)azetidin-1-yl)pyridin-2-yl)methyl)-4,7-dioxo-2-(prop-2-en-1-yl)-octahydro-1H-pyrazino[2,1-c][1,2,4]triazine-1-carboxamide]
